Experimental data as given in patent publication US11844845B2, “Cell penetrating peptide, conjugate comprising same, and composition comprising conjugate” (GEMVAX & KAEL CO., LTD., priority 2012, dated 2023).

Each substance was assayed on HeLa cell (assay: Cell penetration of pep(CPP)-FITC conjugate in HeLa cell line, flow cytometry (FACS)). Details: HeLa cells, 20 uM FITC-fused peptide, 37° C. for an hour, control = FITC only.
Assay type: cell-based, Homo sapiens
Method: Homo sapiens cervix adenocarcinoma cell line as HeLa cell lines were purchased from ATCC (American Type Cell Culture). The cells were cultured in MEM supplemented with 10% fetal bovine serum (Invitrogen, USA), Earle's salts, non-essential amino acids, sodium pyruvate and 100 μg/ml penicillin and 10 units/ml streptomycin and cultured at 37° C., 5% CO2 incubator.
Flow cytometry and Confocal microscope analysis were performed to compare the between degree of cellular uptake of the cells were treated with SEQ ID NO: 2 to SEQ ID NO: 178, pep (CPP) and control.
The cell line was divided in a 6-well plate and cultured in a medium containing 10% fetal bovine serum (Invitrogen, USA), 100 μg/ml penicillin, 100 units/ml streptomycin at 37° C. 5% CO2 incubator for 12 hours. After washing the cell line with PBS, starvation was induced in a Minimum Essential Medium for an hour. 20 uM of each carrier peptide was treated and cultured at 37° C. for an hour. After repeating the step of washing the cells with PBS for three times, Trypsin-EDTA was treated form 10 mins at 37° C. to separate the carrier peptide on the outside of the cell. cells were collected with refrigerated PBS and centrifugation was performed to repeat the step of washing the cells for three times. After then, the cells were suspended in 0.5 ml of PBS containing 4% Paraformaldehyde and fluorescence of the cells was analyzed using FACS Calibur (Becton Dickinson). The cellular uptake aspect of control and various peptides combined with FITC was compared and analyzed by MFI (Mean Fluorescence Intensity).
Analysis results shown in FIGS. 2 to 29 are given in detail in Table 7 below.

“EVRQHREARPALLTSRLRFIPK (listed as Homo sapiens) [Pep-RIA-6]” and “EVRQHREARPALLTSRLRFIPKP (listed as Homo sapiens) [Pep-RIA-40]” are within error of each other in “cellular uptake, MFI (Mean Fluorescence Intensity)” value (“cellular uptake, MFI” below): 16.09 ± 2.52 for the first, 15.14 ± 3.52 for the second.

“EVRQHREARPALLTSRLRFIPKPD (listed as Homo sapiens) [Pep-RIA-41]” and “EVRQHREARPALLTSRLRFIPKPDG (listed as Homo sapiens) [Pep-RIA-42]” are within error of each other in “cellular uptake, MFI” value: 13.58 ± 2.78 for the first, 15.27 ± 1.65 for the second.

“EVRQHREARPALLTSRLRFIPKPDGL (listed as Homo sapiens) [Pep-RIA-43]” and “EVRQHREARPALLTSRLRFIPKPDGLRP (listed as Homo sapiens) [Pep-RIA-45]” are within error of each other in “cellular uptake, MFI” value: 15.34 ± 1.35 for the first, 14.23 ± 1.65 for the second.

Compared with “EVRQHREARPALLTSRLRFIPKPDGLRPI (listed as Homo sapiens) [Pep-RIA-58]”, “FIPK (listed as Homo sapiens) [Pep-RIA-102]” is lower in “cellular uptake, MFI” value: 17.96 ± 0.97 for the first, 12.64 ± 0.44 for the second.

First: HREARPALLTSRLRFIPK (listed as Homo sapiens) [Pep-RIA-2]
Second: HREARPALLTSRLRFIPKP (listed as Homo sapiens) [Pep-RIA-16]
The “cellular uptake, MFI” value of the first is higher: 20.56 ± 1.23 for the first, 15.96 ± 2.37 for the second.

Going from “HREARPALLTSRLRFIPKPD (listed as Homo sapiens) [Pep-RIA-17]” to “HREARPALLTSRLRFIPKPDG (listed as Homo sapiens) [Pep-RIA-22]”, the “cellular uptake, MFI” value rises from 13.61 ± 0.22 to 14.42 ± 0.28.

Compared with “HREARPALLTSRLRFIPKPDGL (listed as Homo sapiens) [Pep-RIA-29]”, “HREARPALLTSRLRFIPKPDGLR (listed as Homo sapiens) [Pep-RIA-38]” is higher in “cellular uptake, MFI” value: 15.26 ± 0.95 for the first, 18.02 ± 0.71 for the second.

Compared with “HREARPALLTSRLRFIPKPDGLRP (listed as Homo sapiens) [Pep-RIA-49]”, “HREARPALLTSRLRFIPKPDGLRPI (listed as Homo sapiens) [Pep-RIA-62]” is higher in “cellular uptake, MFI” value: 15.15 ± 0.62 for the first, 18.89 ± 0.75 for the second.

Going from “IPK (listed as Homo sapiens) [Pep-RIA-103]” to “LLT (listed as Homo sapiens) [Pep-RIA-152]”, the “cellular uptake, MFI” value rises from 10.44 ± 0.18 to 12.58 ± 0.47.

First: LLTS (listed as Homo sapiens) [Pep-RIA-151]
Second: LLTSR (listed as Homo sapiens) [Pep-RIA-150]
The “cellular uptake, MFI” value of the first is lower: 8.81 ± 0.83 for the first, 14.51 ± 0.81 for the second.

Going from “LLTSRL (listed as Homo sapiens) [Pep-RIA-108]” to “LLTSRLR (listed as Homo sapiens) [Pep-RIA-149]”, the “cellular uptake, MFI” value rises from 14.59 ± 0.17 to 16.2 ± 0.22.

First: LLTSRLRFI (listed as Homo sapiens) [Pep-RIA-147]
Second: LLTSRLRFIP (listed as Homo sapiens) [Pep-RIA-146]
The “cellular uptake, MFI” value of the first is lower: 14.93 ± 1.55 for the first, 17.43 ± 0.49 for the second.

Going from “LLTSRLRFIPK (listed as Homo sapiens) [Pep-RIA-95]” to “LRELSEAEVRQHREARPALLTSRLRFIPK (listed as Homo sapiens) [Pep-RIA-13]”, the “cellular uptake, MFI” value falls from 25.79 ± 0.46 to 15.37 ± 1.34.

Going from “LRFIP (listed as Homo sapiens) [Pep-RIA-174]” to “LRFIPK (listed as Homo sapiens) [Pep-RIA-100]”, the “cellular uptake, MFI” value rises from 5.66 ± 0.33 to 14.69 ± 1.48.

Compared with “LSEAEVRQHREARPALLTSRLRFIPK (listed as Homo sapiens) [Pep-RIA-10]”, “LTS (listed as Homo sapiens) [Pep-RIA-158]” is lower in “cellular uptake, MFI” value: 14.64 ± 0.76 for the first, 9.91 ± 1.44 for the second.

Compared with “LTSR (listed as Homo sapiens) [Pep-RIA-109]”, “LTSRL (listed as Homo sapiens) [Pep-RIA-157]” is higher in “cellular uptake, MFI” value: 9.37 ± 0.31 for the first, 11.42 ± 0.32 for the second.

First: LTSRLR (listed as Homo sapiens) [Pep-RIA-156]
Second: LTSRLRF (listed as Homo sapiens) [Pep-RIA-155]
The “cellular uptake, MFI” value of the first is lower: 12.21 ± 0.24 for the first, 14.31 ± 0.55 for the second.

First: LTSRLRFI (listed as Homo sapiens) [Pep-RIA-154]
Second: LTSRLRFIPK (listed as Homo sapiens) [Pep-RIA-96]
The “cellular uptake, MFI” value of the first is lower: 12.21 ± 1.29 for the first, 14.96 ± 0.42 for the second.

“PAL (listed as Homo sapiens) [Pep-RIA-138]” and “PALL (listed as Homo sapiens) [Pep-RIA-137]” are within error of each other in “cellular uptake, MFI” value: 10.8 ± 0.78 for the first, 10.71 ± 1.99 for the second.

“PALLTSR (listed as Homo sapiens) [Pep-RIA-134]” and “PALLTSRL (listed as Homo sapiens) [Pep-RIA-133]” are within error of each other in “cellular uptake, MFI” value: 13.28 ± 0.75 for the first, 12.95 ± 0.69 for the second.

Going from “PALLTSRLR (listed as Homo sapiens) [Pep-RIA-132]” to “PALLTSRLRF (listed as Homo sapiens) [Pep-RIA-106]”, the “cellular uptake, MFI” value rises from 13.72 ± 0.52 to 18.41 ± 1.12.

Going from “PALLTSRLRFI (listed as Homo sapiens) [Pep-RIA-131]” to “PALLTSRLRFIP (listed as Homo sapiens) [Pep-RIA-130]”, the “cellular uptake, MFI” value rises from 13.66 ± 0.87 to 18.54 ± 1.64.

Going from “PALLTSRLRFIPK (listed as Homo sapiens) [Pep-RIA-93]” to “QHREARPALLTSRLRFIPKPDGL (listed as Homo sapiens) [Pep-RIA-28]”, the “cellular uptake, MFI” value falls from 22.88 ± 1.82 to 14.8 ± 0.32.

Compared with “QHREARPALLTSRLRFIPKPDGLR (listed as Homo sapiens) [Pep-RIA-37]”, “QLRELSEAEVRQHREARPALLTSRLRFIPK (listed as Homo sapiens) [Pep-RIA-14]” is higher in “cellular uptake, MFI” value: 16.73 ± 0.28 for the first, 23.67 ± 1.22 for the second.

First: REARPALLTSRLRFIPK (listed as Homo sapiens) [Pep-RIA-1]
Second: REARPALLTSRLRFIPKP (listed as Homo sapiens) [Pep-RIA-15]
The “cellular uptake, MFI” value of the first is higher: 24.3 ± 0.61 for the first, 16.32 ± 0.36 for the second.

Compared with “REARPALLTSRLRFIPKPD (listed as Homo sapiens) [Pep-RIA-18]”, “REARPALLTSRLRFIPKPDG (listed as Homo sapiens) [Pep-RIA-23]” is higher in “cellular uptake, MFI” value: 13.4 ± 0.34 for the first, 16.57 ± 0.68 for the second.

“REARPALLTSRLRFIPKPDGL (listed as Homo sapiens) [Pep-RIA-30]” and “REARPALLTSRLRFIPKPDGLR (listed as Homo sapiens) [Pep-RIA-39]” are within error of each other in “cellular uptake, MFI” value: 15.34 ± 0.55 for the first, 15.84 ± 0.79 for the second.

With “REARPALLTSRLRFIPKPDGLRP (listed as Homo sapiens) [Pep-RIA-50]” the “cellular uptake, MFI” value was 15.47 ± 0.73.
